Experimental data: patent publication US20150038464A1, “METHODS OF INCREASING LIGHT RESPONSIVENESS IN A SUBJECT WITH RETINAL DEGENERATION” (The United States Government as represented by the …, priority 2012, published 2015)

Experiments:
[1] = test system: P23H rat RGCs; assay: Light-evoked responses (intensity-response curves) of retinal ganglion cells recorded extracellularly from isolated P23H rat retina; type: cell-based; conditions: 500 nM JNJ16259685
Procedure: Sprague-Dawley (SD) rats (age range 13-44 weeks) and P23H-line 1 homozygous rats (age range 23-42 weeks) were used in this study. Both the SD rats and P23H rats were bred and housed in the same facility. Breeding pairs of SD rats were obtained from Harlan Laboratories (Indianapolis, Ind.). Breeding pairs of P23H-line 1 homozygous rats were generously donated by Dr. Matthew LaVail (University of California San Francisco, Calif.). The room light was kept on a 12 hour light/dark cycle using standard fluorescent lighting. During the light cycle the illumination at the level of the cages was 100-200 lux. All animal care procedures and experimental methods were approved by the appropriate Institutional Animal Care and Use Committee.
On the day of an experiment, a rat was euthanized with sodium pentobarbital (150 mg/kg, i.p.), and the eyes were removed and hemisected under normal room light. […]
Light from a mercury arc lamp illuminated an aperture that was focused on the retina from above through the 4× objective of the microscope. The image produced on the retina was either a 250-μm or 1.5-mm diameter spot, which was centered on the recorded RGC. […] The intensity of the unattenuated light stimulus on the retina measured with a spectroradiometer (ILT900-R, International Light Technologies, Peabody, Mass.) was 8.5×10^17 photons/cm^2/s. […]

[2] = test system: P23H rat RGCs; assay: as above; type: cell-based; conditions: 16 P23H rat RGCs, 500 nM JNJ16259685

## CO[C@H]1CC[C@@H](C(=O)c2ccc3nc4c(cc3c2)CCCO4)CC1 [JNJ16259685, 3,4-dihydro-2H-pyranol[2,3-b]quinolin-7-yl-(cis-4-methoxycyclohexyl)-methanone]
[1]; 16 P23H rat RGCs (15 ON-center, one OFF-center)
  average increase in light sensitivity: 0.56 log units
[1]; 16 P23H rat RGCs, P=0.007
  increase in maximum peak response: 9.9%
[2]; mean±SD, before drug 0.89±0.41
  dynamic operating range with drug: 1.05±0.42 log unit
[2]; mean±SD, before drug 162±65
  maximum peak response with drug: 178±64 spikes/s
[2]
  factor by which the light the cells responded to was less intense than without drug: ~4 fold
[2]; not significant (P=0.239)
  increase in dynamic operating range: 18%
